In patent US20040192720A1, “Novel heteroaryl alkylamide derivatives useful as bradykinin receptor modulators” (priority 2003, published 2004):
pKi: −log10 of the molar value.

Legend:
[1] = molecular target: T1, human B2 bradykinin receptors (Homo sapiens, UniProt P30411); experiment: Bradykinin B2 (BK2) Receptor Binding Assay; conditions: CHO-K1 membranes transfected with human B2 receptor, ~0.25 nM [3H]NPC17731, 60 min 25° C.
T1 construct: purchased Receptor Biology, Inc. (Baltimore, Md.); host or cells: CHO-K1 cells transfected with human B2 receptor (membranes)
T1 sequence (P30411 1-391): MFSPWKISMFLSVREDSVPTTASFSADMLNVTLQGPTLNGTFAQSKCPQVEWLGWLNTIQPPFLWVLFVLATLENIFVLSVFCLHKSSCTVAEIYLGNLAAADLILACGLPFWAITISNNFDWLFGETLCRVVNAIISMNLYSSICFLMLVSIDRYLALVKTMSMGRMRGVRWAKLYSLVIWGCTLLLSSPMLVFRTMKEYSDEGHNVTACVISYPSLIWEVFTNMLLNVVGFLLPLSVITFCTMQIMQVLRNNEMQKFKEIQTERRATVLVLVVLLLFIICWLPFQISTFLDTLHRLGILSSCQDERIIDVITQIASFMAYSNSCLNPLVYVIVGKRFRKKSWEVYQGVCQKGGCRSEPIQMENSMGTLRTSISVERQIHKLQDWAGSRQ
Procedure: Bradykinin B2 (BK2) Receptor Binding Assay
Cell membranes of CHO-K1 cells transfected with human B2 bradykinin receptors (CH)-hB2) were purchased from Receptor Biology, Inc. (Baltimore, Md.). 5.54 mg/mL of membrane protein suspended in 10 mM TRIS-HC pH 7.2, 2 mM EDTA, 10% sucrose.
Incubation for 60 min at 25° C. was performed in a total volume of 1 mL and contained, unless stated differently, 50 mM HEPES, pH 7.2, 5 mM MgCl2, 0.02 mg/mL 1.10-phenathroline (Sigma, P-9375), 0.25 mg/mL pefebloc SC (Boerhringer, 1429876), 30 μg/mL membrane protein and ˜0.25 nM [^3HNPC17731 (NEN, Boston). Samples were harvested on a Brandel Cell Harvester on to Wallac filtermat B sheets (96 sample format), and washed three times with 2 mL cold HEPES-buffer (10 mM, pH 7.5), and dried in a microwave oven. To each sample area 2×40 μL of Betaplate Scint scintillation fluid (LKB) was added and the radioactivity quantified on a LKB (Wallac) 1205 BetaPlate liquid scintillation counter.
The data were used to calculate either the % inhibition compared to control binding (when only a single concentration of test compound was evaluated) or a Ki value (when a range of concentrations were tested). Background was subtracted from mean cpm values and % inhibition was calculated as: [(total dpm-tpst compound dpm)/(total dpm-nonspecific dpm)]×100. Kd and Ki values were calculated using GraphPad PRISM data analysis program.

[2] = molecular target: T2, human B2 bradykinin receptors (CHO-hB2 cell membranes) (Homo sapiens, UniProt P30411); experiment: [35S]GTPγS Binding Assay in CHO-hB2 Cell Membranes; format: biochemical; conditions: bradykinin-stimulated [35S]GTPγS binding; for Functional Activity (% Basal): number in parentheses, concentration not given
T2 construct: purchased Receptor Biology, Inc. (Baltimore, Md.); host or cells: CHO-hB2 cells (membranes)
T2 sequence (P30411 1-391): T1 sequence (P30411 1-391)
Procedure: [^35S]GTPγS Binding Assay in CHO-hB2Cell Membranes
CHO-hB2 cell membranes were purchased from Receptor Biology, Inc. (Baltimore, Md.). 10 mg/mL of membrane protein was suspended in 10 mM TRIS-HC pH 7.2, 2 mM EDTA, 10% sucrose.
Membranes were added into 15 mL ice cold binding assay buffer. The assay buffer contained 50 mM HEPES, pH 7.6, 5 mM MgCl2, 100 mM NaCl, 1 mM DTT and 1 mM EDTA. The membrane suspension was homogenized twice with a Polytron and centrifuged at 3000 rpm for 10 min. The supernatant was then centrifuged at 18,000 rpm for 20 min. The pellet was saved in a tube and resuspended.
The pellet membranes (40 μg/mL) were preincubated with SPA (scintillation proximity assay) beads (20 mg/mL) at 25 C. ° for 45 min in the assay buffer. The SPA beads (5 mg/mL) coupled with membranes (10 μg/mL) were then incubated with 0.5 nM [^35S]GTPγS in the same HEPES buffer containing 50 μM GDP in total volume of 200 μL. Bradykinin was used to stimulate [^35S]GTPγS binding. Varying concentrations of drugs were incubated with bradykinin to inhibit bradykinin-stimulated [^35S]GTPγS binding. The basal binding was tested in the absence of bradykinin and no specific binding was tested in the present 10 μM unlabeled GTPγS. The radioactivity was quantified on a Packard Top Count, and calculated.
% of Basal=(stimulated binding−non specific binding)/(basal binding−non specific binding)×100.

[3] = tested on: kaolin-induced abdominal irritant response; experiment: Graded Abdominal Irritant Test (GrAIT); format: in vivo; conditions: po; for % Inhibition: 30 minutes before kaolin 100 mg/kg i.p., dose not given; for ED50: read-out: ED50 (μmol/Kg, p.o.)
Procedure: Graded Abdominal Irritant Test The […] Abdominal Irritant Test (GrAIT) is a modification of the methods described by Koster et al. (Koster R., Anderson M and DeBeer E. J. Fed. Proc. 1959, 18, 412). Prior to the test (30 minutes for oral or subcutaneous administration), each animal was administered a known analgesic, a test compound, or vehicle (0.05N HCl) by one of two routes (oral or subcutaneous). Kaolin (100 mg/kg) was injected intraperitoneally (using a standard 23G needle) at a volume of 10 mL/kg of body weight. Following the administration of the chemical agent, the animals were placed in glass bell jars (approximately 15 cm in diameter with wood chips on the bottom). […] A contraction of the abdominal musculature and an elongation of the body, which extends through to the hindlimbs, characterize this response. The responses were counted during the 15-minute period after the injection of the kaolin. A mechanical counter or a personal computer was used to collect the number of counts per animal, and animals were observed no more than 5 at a time. The mean number of counts (±SEM) for a group of animals receiving a known analgesic or test compound was compared to the mean for the group of animals which received only vehicle pretreatment (Control group). For each dose, % inhibition of the response was calculated. For each test compound, the ED50 value was calculated using a log dose regression analysis program (PharmTools software).

Compound | pKi [1] | Functional Activity (word result) [2] | Functional Activity (% Basal) [2] [% Basal] | further results
Cc1ccc2cccc(OCc3c(C)ccc(N4CCC[C@H]4CNC(=O)Cc4ccc(C(=O)c5ccc(C#N)cc5)n4C)c3C)c2n1 [Compound 113] | 5.10 | – | – | –
Cc1ccc2cccc(OCc3c(Cl)ccc(NC(=O)Cc4ccc(C(=O)c5ccc(C#N)nc5)n4C)c3Cl)c2n1 [Compound 14] | 5.17 | – | – | –
Cc1ccc2cccc(OCc3c(C)ccc(N(C)C(=O)Cc4ccc(C(=O)c5cnccc5C#N)n4C)c3C)c2n1 [Compound 78, 2-[5-(4-Cyano-pyridine-3-carbonyl)-1-methyl-1H-pyrrol-2-yl]-N-[2,4-dimethyl-3-(2-methyl-quinolin-8-yloxymethyl)-phenyl]-N-methyl-acetamide] | – | Antagonist | 83 | % Inhibition [3]: 82%; ED50 [3]: 114 µmol/kg
Cc1ccc2cccc(OCc3c(Cl)ccc(NC(=O)Cc4ccc(C(=O)c5ccc(C#N)cc5)n4C)c3Cl)c2n1 [Compound 15] | 5.21 | Weak antagonist | – | –
Cc1ccc2cccc(OCc3c(C)ccc(N4CCC[C@H]4CNC(=O)CCc4ccc(C(=O)c5ccc(C#N)cc5)n4C)c3C)c2n1 [Compound 114] | 6.26 | – | – | –
Cc1ccc2cccc(OCc3c(C)ccc(N(C)C(=O)Cc4ccc(C(=O)c5ccccc5)s4)c3C)c2n1 [Compound 108, 2-(5-Benzoyl-thiophen-2-yl)-N-[2,4-dimethyl-3-(2-methyl-quinolin-8-yloxymethyl)-phenyl]-N-methyl-acetamide] | 7.05 | – | – | –
Cc1ccc2cccc(OCc3c(Cl)ccc(N(C)C(=O)CCc4ccc(C(=O)c5cnccc5Cl)n4C)c3Cl)c2n1 [Compound 89, 3-[5-(4-Chloro-pyridine-3-carbonyl)-1-methyl-1H-pyrrol-2-yl]-N-[2,4-dichloro-3-(2-methyl-quinolin-8-yloxymethyl)-phenyl]-N-methyl-propionamide] | – | Antagonist | 51 | % Inhibition [3]: 98%; ED50 [3]: 22.5 µmol/kg
N-[2,4-Dimethyl-3-(2-methyl-quinolin-8-yloxymethyl)-phenyl]-3-[5-(4-methoxy-benzoyl)-1-methyl-1H-pyrrol-2-yl]-N-methyl-propionamide [Compound 106] | 6.43 | – | – | –
CC(=O)Nc1ccc(C=CC(=O)NC[C@H]2CCCN2c2ccc(C)c(COc3cccc4ccc(C)nc34)c2C)cn1 [Compound 112, 3-(6-Acetylamino-pyridin-3-yl)-N-{1-[2,4-dimethyl-3-(2-methyl-quinolin-8-yloxymethyl)-phenyl]-pyrrolidin-2-(R)-ylmethyl}-acrylamide.] | – | Antagonist | 59 | –
Cc1ccc2cccc(OCc3c(Cl)ccc(N(C)C(=O)Cc4ccc(C(=O)CN5CCC(c6ccccc6)CC5)n4C)c3Cl)c2n1 [Compound 58, N-[2,4-Dichloro-3-(2-methyl-quinolin-8-yloxymethyl)-phenyl]-N-methyl-2-{1-methyl-5-[2-(4-phenyl-piperidin-1-yl)-acetyl]-1H-pyrrol-2-yl}-acetamide] | – | No effect | 1 | –
Cc1ccc2cccc(OCc3c(C)ccc(N(C)C(=O)Cc4ccc(C(=O)c5cnccc5Cl)n4C)c3C)c2n1 [Compound 77, 2-[5-(4-Chloro-pyridine-3-carbonyl)-1-methyl-1H-pyrrol-2-yl]-N-[2,4-dimethyl-3-(2-methyl-quinolin-8-yloxymethyl)-phenyl]-N-methyl-acetamide] | – | Antagonist | 62 | % Inhibition [3]: 70%; ED50 [3]: 80.9 µmol/kg
Cc1ccc2cccc(OCc3c(C)ccc(N(C)C(=O)CCc4ccc(C(=O)c5cccnc5)n4C)c3C)c2n1 [Compound 84] | – | Antagonist | – | –

The next lines start with results.

pKi [1] | Functional Activity (word result) [2] | Compound | Functional Activity (% Basal) [2] [% Basal] | further results
– | Weak antagonist | COc1ccc(C(=O)c2ccc(CC(=O)N(C)c3ccc(Cl)c(COc4cccc5ccc(C)nc45)c3Cl)n2C)cc1 [Compound 68] | 4 | –
– | Antagonist | Cc1ccc2cccc(OCc3c(Cl)ccc(N(C)C(=O)Cc4ccc(C(=O)c5ccc([N+](=O)[O-])c(C)c5)n4C)c3Cl)c2n1 [Compound 65, N-[2,4-Dichloro-3-(2-methyl-quinolin-8-yloxymethyl)-phenyl]-N-methyl-2-[1-methyl-5-(3-methyl-4-nitro-benzoyl)-1H-pyrrol-2-yl]-acetamide] | – | –
– | Antagonist | Cc1ccc2cccc(OCc3c(Cl)ccc(N(C)C(=O)Cc4ccc(C(=O)c5ccc(C#N)nc5)n4C)c3Cl)c2n1 [Compound 71] | – | –
– | No effect | Cc1ccc2cccc(OCc3c(Cl)ccc(N(C)C(=O)Cc4ccc(C(=O)c5ccc(C#N)cc5)n4CCC(C)C)c3Cl)c2n1 [Compound 13] | 1 | –
– | Weak antagonist | Cc1ccc2cccc(OCc3c(Cl)ccc(N(C)C(=O)Cc4ccc(C(=O)c5cccs5)n4C)c3Cl)c2n1 [Compound 61] | – | –
– | Antagonist | Cc1ccc2cccc(OCc3c(Cl)ccc(N(C)C(=O)Cc4ccc(C(=O)c5ccc(S(C)(=O)=O)cc5)n4C)c3Cl)c2n1 [Compound 75, N-[2,4-Dichloro-3-(2-methyl-quinolin-8-yloxymethyl)-phenyl]-2-[5-(4-methanesulfonyl-benzoyl)-1-methyl-1H-pyrrol-2-yl]-N-methyl-acetamide] | – | –
– | Antagonist | CSc1ccc(C(=O)c2ccc(CC(=O)N(C)c3ccc(Cl)c(COc4cccc5ccc(C)nc45)c3Cl)n2C)cc1 [Compound 69] | – | –
– | Antagonist | Cc1ccc2cccc(OCc3c(Cl)ccc(N(C)C(=O)Cc4ccc(C(=O)c5ccccc5[N+](=O)[O-])n4C)c3Cl)c2n1 [Compound 66] | – | –
